We go through 2 compounds from US20190240176A1, “METHODS OF TREATMENT FOR MYELOID LEUKEMIA” (The University of Georgia Research Foundation, Inc., priority 2016, published 2019).

Data set [1] relates to human AML cell lines (MV4-11, U937, HL60). Description: Colony formation assay, human AML cell lines. Format: cell-based. The note with it: FIG. 11G-I. The procedure: (§1) The human BC-CML cell line K562, the human acute leukemia cell lines MV4-11 and U937 were maintained in Roswell Park Memorial Institute 1640 medium (RPMI-1640) with 10% FBS, 100 IU/ml penicillin and 100 μg/ml streptomycin. The human acute promyelocytic leukemia cell line HL60 was maintained in RPMI supplemented with 20% FBS. All human cell lines were obtained from ATCC, and cell line authentication testing was performed by ATCC-standardized STR analysis to verify their identity in July 2016. For the colony forming assays, the cells were transduced with lentiviral shRNA and plated in triplicate in 1.2% methylcellulose medium (R&D systems) supplemented with 100 IU/ml penicillin and 100 μg/ml streptomycin, 10% FBS. Where indicated, either BCAAs (L-Leucine, L-Valine, L-Isoleucine, 4 mM each, Sigma-Aldrich), L-alanyl-L-glutamine (4 mM, GlutaMax™, Life Technologies), rapamycin (50 nM, Tocris) or gabapentin (Gbp; Tokyo Chemical Industry Co.) was added to the medium. Gbp was freshly dissolved in PBS before use. Colonies were scored on days 9 to 14. […] Colonies were scored on days 7 to 10.

Data set [2] concerns primary Lin- BC-CML cells. The experiment in a line: Colony formation assay, primary Lin- BC-CML cells. Conditions: primary mouse Lin- BC-CML cells plated with Gbp; FIG. 2B. Format: cell-based. Here is the method: as §1
The test system of another data set is primary human AML cells. Description: Colony formation assay, primary de novo AML cells. The class given is cell-based. Conditions: FIG. 3G. Here is the method: (§2) Patient blood samples were obtained at the Institute of Medical Science, the University of Tokyo (IMSUT) Hospital with written informed consent according to the procedures approved by the Institutional Review Board. Mononuclear cells from the subjects were viably frozen and stored in liquid nitrogen. For in vitro colony formation with BCAT1 knockdown, primary hCD34^+ cells sorted from patient bone marrow samples were cultured in IMDM supplemented with 10% FBS, 100 IU/ml penicillin and 100 μg/ml streptomycin, 55 μM 2-mercaptoethanol, SCF, IL-3, IL-6, FLT3L and TPO. After 24 h of culture, the cells were transduced with lentiviral shRNA (cloned in FG12-UbiC-GFP), and the GFP-positive infected cells were sorted at 48 h, and 5,000-50,000 cells were plated in complete methylcellulose medium (Methocult H4435, StemCell Technologies). For the colony forming assays with Gbp, sorted hCD34^+ cells from the primary patient specimens were cultured in complete methylcellulose medium with the indicated concentrations of Gbp. Colonies were scored on days 9 to 14.

The subject of data set [3] is S6 kinase (pS6K), a downstream target of mTORC1 kinase. Description: Western blotting for phospho-S6 kinase in K562 cells. Format: cell-based, human. Conditions: shBCAT1-d or 20 mM Gbp for 24 h, FIG. 3J.
The conditions of data set [4]: in water and in both basic and acidic aqueous solutions; cited from earlier work.
In data set [5] the test system is primary human BC-CML cells. The experiment in a line: Colony formation assay, patient-derived primary BC-CML cells. The class given is cell-based. The note with it: patient-derived primary leukemia cells; FIGS. 3D-E, 11E-F. Here is the method: as §2
A further data set concerns K562 human BC-CML cells. The experiment in a line: Colony formation assay, K562 cells. Format: cell-based. Conditions: for leukemic colony formation: K562, Gabapentin in combination with Imatinib, 300 cells per well, scored on day 5, FIG. 14A. The procedure:
BCAT1 inhibition by Gabapentin is shown in FIG. 14A, leukemic colony formation by human blast crisis CML was attenuated in combination with the tyrosine kinase inhibitor Imatinib. […] Three hundred cells were plated per well in triplicate, and colonies were scored on day 5 (error bars indicates s.e.m. *p<0.05, **p<0.01). Inhibition of leukemic colony formation by gabapentin (Gbp) and its structural analogs was also investigated (FIG. 14B). The colony-forming ability of K562 human CML cells treated with the indicated chemicals was investigated. One hundred fifty cells were plated per well in triplicate, and colonies were scored on day 14 (error bars indicates s.e.m. ***p<0.001 compared with the vehicle control).
as §1

Another data set has as its target T1, BCAT2 (Homo sapiens, UniProt O15382).
T1 sequence (O15382 28-392): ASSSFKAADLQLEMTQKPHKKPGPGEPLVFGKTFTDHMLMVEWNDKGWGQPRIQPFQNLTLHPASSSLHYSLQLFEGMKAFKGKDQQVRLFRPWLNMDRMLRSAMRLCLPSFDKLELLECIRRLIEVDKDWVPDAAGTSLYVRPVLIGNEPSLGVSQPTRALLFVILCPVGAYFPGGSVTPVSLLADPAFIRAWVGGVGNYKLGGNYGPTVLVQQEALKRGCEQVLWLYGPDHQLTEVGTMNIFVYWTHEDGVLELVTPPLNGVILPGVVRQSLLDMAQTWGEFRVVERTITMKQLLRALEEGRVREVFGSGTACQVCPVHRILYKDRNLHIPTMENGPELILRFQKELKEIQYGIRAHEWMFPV
Conditions: literature reference 7; cited from earlier work.

The test system of another data set is normal HSPCs. The experiment in a line: Colony formation assay, normal HSPCs (LSK cells). Format: cell-based, mouse. The note with it: FIGS. 9E-F. The procedure:
as §1

In a further data set the target is T2, BCAT1 (Homo sapiens, UniProt P54687).
T2 sequence (P54687 1-386): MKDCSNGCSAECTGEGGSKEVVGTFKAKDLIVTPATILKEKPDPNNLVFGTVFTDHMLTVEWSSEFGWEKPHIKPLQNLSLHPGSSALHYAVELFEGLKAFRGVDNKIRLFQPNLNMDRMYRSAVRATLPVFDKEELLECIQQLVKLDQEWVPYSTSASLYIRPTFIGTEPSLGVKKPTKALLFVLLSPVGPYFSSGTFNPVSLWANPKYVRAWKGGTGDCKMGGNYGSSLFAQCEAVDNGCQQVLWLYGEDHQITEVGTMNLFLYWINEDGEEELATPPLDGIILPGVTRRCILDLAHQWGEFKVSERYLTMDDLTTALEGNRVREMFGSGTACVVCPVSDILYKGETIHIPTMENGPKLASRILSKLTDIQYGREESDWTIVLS
Conditions: literature reference 7; cited from earlier work.

For data set [6], the system named is intracellular BCAAs in K562 cells. The experiment in a line: Intracellular amino acid quantification in K562 cells. Format: cell-based, human. The note with it: compared with the controls, FIGS. 12A-B. Here is the method:
Leukemia cells or peripheral blood samples drawn from mice bearing myeloid leukemia were used for amino acid and keto acid analysis by high-performance liquid chromatography (HPLC)-fluorescence detection, as described^32-34. In brief, two hundred thousand live leukemia cells per sample were sorted and washed twice with ice-cold PBS to remove media components prior to amino acid extraction. The blood plasma was prepared by centrifugation of the peripheral blood samples at 2,000×g at 4° C. for 10 min. […] For amino acid quantification, the dried samples were treated with the amine-reactive 4-fluoro-7-nitro-2,1,3-benzoxadizole (NBD-F) to derivatize the amino acids. […] The gradient conditions were as follows: t=0 min, 10% B; t=20 min, 50% B; and t=30 min, 100% B. For NBD-Asn, Ser, Thr, Gln and Phe analysis, 25 mM citrate buffer containing 25 mM sodium perchlorate (pH 4.4) was used as the mobile phase A. NBD-amino acids were detected with excitation and emission wavelengths of 470 and 530 nm, respectively. For keto acid quantification, dried samples were treated with o-phenylenediamine (OPD) to derivatize alpha-keto acids, followed by liquid-liquid extraction with ethyl acetate. […] The fluorescence detection was carried out at the emission wavelength of 410 nm with excitation of 350 nm.

Molecules are shown by their SMILES.

For `NCC1(CC(=O)O)CCCCC1` [Gbp, 1-(aminomethyl)cyclohexane acetic acid], the clonal growth result (in [1]; with primary human AML cells) was “effectively inhibited” in each case. The clonogenic growth result in data set [2] was “dose-dependent impairment”. Further, in [2], the colony size entry was “formed smaller colonies”. Moreover, the “phosphorylation of S6 kinase (pS6K)” value in data set [3] is on record as “significantly reduced”. In data set [4], the solubility result is given as “freely soluble”. Besides, the colony-forming ability entry is recorded as “markedly inhibited” in data set [5] and “markedly inhibited” in the data set on K562 human BC-CML cells (K562 human BC-CML, FIG. 11A-D). In the data set with K562 human BC-CML cells, the leukemic colony formation entry is “attenuated”. For the same compound, the “inhibition of the transaminase activity of BCAT2” value on BCAT2 is recorded as “but not that of BCAT2”. Also, the “colony-forming ability of normal HSPCs” value with normal HSPCs is recorded as “only minimally affected”. Also, on BCAT1, the “inhibition of the transaminase activity of BCAT1” value was “specifically and competitively inhibit”. Besides, the “intracellular concentrations of all three BCAAs” value in data set [6] is given as “significantly reduced”.
In the case of `Cc1ccc(NC(=O)c2ccc(CN3CCN(C)CC3)cc2)cc1Nc1nccc(-c2cccnc2)n1` [Imatinib], in the data set on K562 human BC-CML cells, the leukemic colony formation entry is given as “attenuated”.
